Data taken from patent US20230322756A1, “FUSED IMIDAZOLE DERIVATIVE, PREPARATION METHOD THEREFOR, AND MEDICAL USE THEREOF” (JIANGSU HENGRUI MEDICINE CO., LTD., priority 2020, published 2023).

Assays:
[1] = Pharmacokinetic evaluation in dogs; type: in vivo; conditions: beagle dogs; for Vd/F / AUC(0-t) / CL/F / half-life / Cmax: male, dog, plasma; for Vd/F: read-out: Apparent distribution volume Vz/F; for AUC(0-t): read-out: Area under curve AUC0-t; for CL/F: read-out: Clearance CLz/F; for half-life: read-out: Half-life T½ (converted); for Cmax: read-out: Plasma concentration Cmax
Experimental: Dogs are the test animals. The drug concentrations in the plasma of dogs at different time points after intragastric (ig) administration/intravenous (iv) injection of the compounds of the present disclosure were determined by an LC/MS/MS method. The pharmacokinetic performance in beagles of the compounds of the present disclosure was studied and the pharmacokinetic profile thereof was evaluated.
Twelve beagle dogs, males, evenly divided into 4 groups, provided by the animal reserve bank (999M-004) of Shanghai Medicilon Inc. All animals were beagle dogs qualified for physical examination and healthy without abnormalities.
Intragastric administration: the dose was 2 mg/kg and the volume was 50.0 mL/kg.
Intravenous injection administration: the dose was 0.5 mg/kg and the volume was 20.0 mL/kg.
The blood was placed in an EDTA-K2 anticoagulation tube and centrifuged at 10,000 rpm for 5 min (4° C.), and plasma was separated out within 1 h and then stored at −80° C. before being tested. Food intake was resumed 3 h after administration.
The process from blood collection to centrifugation was performed under an ice bath.
(§1) The content of the test compounds at different concentrations in plasma of beagle dogs after the administration was determined: 10 μL of plasma of beagle dogs at each time point after the administration was mixed with 200 μL of acetonitrile (containing a solution of internal standard camptothecin (100 ng/mL)); the mixture was vortexed for 1 min, and centrifuged for 7 min (18,000 r/min), and 6 μL of supernatant was taken for LC/MS/MS analysis.

[2] = Pharmacokinetic evaluation in mice; type: in vivo, C57 mice; conditions: for AUC(0-t) / half-life / Vd/F / CL/F / Cmax: female, C57, mouse, plasma; for AUC(0-t): read-out: Area under curve AUC0-t; for half-life: read-out: Half-life T½ (converted); for Vd/F: read-out: Apparent distribution volume Vz/F; for CL/F: read-out: Clearance CLz/F; for Cmax: read-out: Plasma concentration Cmax
Experimental: The drug concentrations in the plasma of the test animals (mice) at different time points after intragastric (ig) administration/intravenous (iv) injection of the compounds of the present disclosure were determined by an LC/MS/MS method. The pharmacokinetic behavior of the compound of the present disclosure in mice was studied and its pharmacokinetic profile was evaluated.
Thirty-six C57 mice, female, evenly divided into 4 groups, purchased from Beijing Vital River Laboratory Animal Technology Co., Ltd., with animal production license number: SCXK (Shanghai) 2017-0005.
Intragastric administration: the drugs were intragastrically administered to mice at a dose of 2.0 mg/kg and a volume of 20.0 mL/kg.
Intravenous injection administration: the drugs were administered to mice by intravenous injection at a dose of 1.0 mg/kg and a volume of 10.0 mL/kg.
The blood was placed in an EDTA-K2 anticoagulation tube and centrifuged at 10,000 rpm for 1 min (4° C.), and plasma was separated out within 1 h and then stored at −80° C. before being tested. The process from blood collection to centrifugation was performed under an ice bath.
as §1, with “of mice” for “of beagle dogs”, “determined: 25” for “determined: 10”, “(containing 50 μL of” for “(containing”, “for 10” for “for 7”, “min (4000” for “min (18,000”, “and 0.5” for “and 6”

CYP2C19 = CYP2C19 (Homo sapiens (Human), UniProt P33261); experiment: Time-dependent inhibition (TDI) of CYP2C19 (S)-mephenytoin site of metabolism in human liver microsomes; type: in vitro ADME; conditions: for IC50: (S)-mephenytoin
Sequence of CYP2C19 (P33261 whole entry): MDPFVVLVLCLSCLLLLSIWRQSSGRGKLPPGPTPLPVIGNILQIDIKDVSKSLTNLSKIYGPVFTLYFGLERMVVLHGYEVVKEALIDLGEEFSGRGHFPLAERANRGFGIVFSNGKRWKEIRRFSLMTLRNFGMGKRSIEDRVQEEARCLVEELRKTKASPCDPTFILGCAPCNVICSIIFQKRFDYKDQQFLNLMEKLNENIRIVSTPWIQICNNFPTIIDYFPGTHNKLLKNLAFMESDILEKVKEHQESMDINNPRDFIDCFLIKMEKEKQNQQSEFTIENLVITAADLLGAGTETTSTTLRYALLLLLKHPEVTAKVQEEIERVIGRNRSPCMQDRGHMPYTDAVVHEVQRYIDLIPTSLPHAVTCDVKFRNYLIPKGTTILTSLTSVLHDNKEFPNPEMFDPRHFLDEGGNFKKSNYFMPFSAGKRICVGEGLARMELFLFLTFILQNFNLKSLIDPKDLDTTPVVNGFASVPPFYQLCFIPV
Experimental: I. Materials and Instruments • 1. Phosphate buffered saline (20×PBS, purchased from Sangon); • 2. NADPH (ACROS, A2646-71-1); • 3. Human liver microsome (Corning Gentest, Cat No. 452161, Lot No. 905002, Donor36); • 4. ABI QTrap 4000 LC-MS System (AB Sciex); • 5. ZORBAX Extend-C18, 3×50 mm, 3.5 μm (Agilent, USA); • 6. CYP probe substrate ((S)-mephenytoin/20 μM, powder purchased from J&K Scientific Ltd., Cat No. 303768) and positive control inhibitor (ticlopidine, powder purchased from SIGMA, Cat No. T6654-1G).
A 100 mM PBS buffer was prepared. A 15 mM MgCl2 solution and a 10 mM NADPH solution were prepared using the buffer. A 0.5 mg/mL microsome solution was prepared using the 15 mM MgCl2 solution. A 30 mM stock solution was diluted with DMSO to a series of solutions I with concentrations of 30 mM, 10 mM, 3 mM, 1 mM, 0.3 mM, 0.1 mM, 0.03 mM and 0 mM, which were then 10-fold diluted with acetonitrile (ACN) and finally 50-fold diluted with phosphate-buffered solution (PBS) to obtain a series of test working solutions II (60 μM, 20 μM, 6 μM, 2 μM, 0.6 μM, 0.2 μM, 0.06 μM and 0 μM). A 20 μM working solution of (S)-mephenytoin was prepared by dilution with PBS.
The above prepared series of working solutions were well shaken and divided into 50 μL aliquots in corresponding reaction plates (+NADPH group and −NADPH group were set) in triplicate. 20 μL of the liver microsome working solution was added to each 96-well plate. 10 μL of NADPH was added to +NADPH group. The plates were incubated in a water bath at 37° C., and a timer was set on the incubation. After 30 min of incubation, the plates were taken out, and +NADPH group was supplemented with 20 μL of corresponding substrate solutions and −NADPH group with 20 μL of corresponding substrate solutions and 10 μL of NADPH. The plates were incubated in a water bath at 37° C., and a timer was set on the incubation. After 30 min of incubation, the plates were taken out, and the reactions were terminated with 250 μL of an ACN solution containing an internal standard. The plates were shaken on a shaker at 800 rpm for 10 min and centrifuged on a centrifuge at 4000 rpm for 15 min. 100 μL of supernatant and 80 μL of ultrapure water were well mixed and subjected to LC-MS/MS analysis.

[3] = intravenous injection, 0.5 mg/kg
[4] = po, intragastric administration, 2 mg/kg
[5] = 30 min pre-incubation with NADPH
[6] = 30 min pre-incubation without NADPH

Apparent distribution volume Vz/F [1, 3] | Clearance CLz/F [1, 3] | Vd/F [1, 4] | AUC(0-t) [1, 4] | CL/F [1, 4] | half-life [1, 4] | Cmax [1, 4] | AUC(0-t) [1, 3] | half-life [1, 3] | Cmax [1, 3] | AUC(0-t) ([2]; intravenous injection, 1 mg/kg) | half-life ([2]; intravenous injection, 1 mg/kg) | Vd/F [2, 4] | AUC(0-t) [2, 4] | CL/F [2, 4] | half-life [2, 4] | Cmax [2, 4] | Apparent distribution volume Vz/F ([2]; intravenous injection, 1 mg/kg) | Clearance CLz/F ([2]; intravenous injection, 1 mg/kg) | IC50 (CYP2C19; [5]) | Compound | other results
0.448 L/kg | 1.8 mL/min/kg | 0.636 L/kg | 22100 ng·h/mL | 1.7 mL/min/kg | 4.9 h | 4430 ng/mL | 4830 ng·h/mL | 3 h | 1740 ng/mL | 2190 ng·h/mL | 1.5 h | 5.76 L/kg | 1440 ng·h/mL | 23.1 mL/min/kg | 2.9 h | 359 ng/mL | 0.981 L/kg | 7.55 mL/min/kg |  | O=C(O)c1ccc2nc(CN3CCC(c4cccc5c4O[C@@H](c4ccc(Cl)cc4F)CO5)CC3)n(C[C@@H]3CCO3)c2n1 [Example 5, 2-((4-((S)-3-(4-Chloro-2-fluorophenyl)-2,3-dihydrobenzo[b][1,4]dioxan-5-yl)piperidin-1-yl)methyl)-3-((S)-oxetan-2-ylmethyl)-3H-imidazo[4,5-b]pyridine-5-carboxylic acid] | 
0.908 L/kg | 1.9 mL/min/kg | 0.713 L/kg | 21400 ng·h/mL | 1.6 mL/min/kg | 5.3 h | 4040 ng/mL | 4010 ng·h/mL | 5.4 h | 1220 ng/mL | 1870 ng·h/mL | 1.3 h | 4.01 L/kg | 2250 ng·h/mL | 14.8 mL/min/kg | 3.1 h | 797 ng/mL | 1.014 L/kg | 8.9 mL/min/kg | > 30 µM | O=C(O)c1ccc2nc(CN3CCC(c4cccc5c4O[C@@H](c4ccc(Cl)cc4F)CO5)CC3)n(C[C@@H]3CCO3)c2c1 [Example 4, 2-((4-((S)-3-(4-Chloro-2-fluorophenyl)-2,3-dihydrobenzo[b][1,4]dioxan-5-yl)piperidin-1-yl)methyl)-1-(((S)-oxetan-2-yl)methyl)-1H-benzo[d]imidazole-6-carboxylic acid] | IC50 (CYP2C19; [6]): > 30 µM
 |  |  |  |  |  |  |  |  |  |  |  |  |  |  |  |  |  |  | 2.6 µM | C[C@]1(c2ccc(Cl)cc2F)Oc2cccc(C3CCN(Cc4nc5ccc(C(=O)O)cc5n4C[C@@H]4CCO4)CC3)c2O1 [Positive compound 1, reference compound] | IC50 (CYP2C19; [6]): 6.4 µM; IC50 shift at 30 min (CYP2C19; probe (S)-mephenytoin, CYP2C19 (S)-mephenytoin site, read-out: IC50 shift fold): 2.5
